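Briefly, cells in 96-well plates were exposed to five compound concentrations for 48 h, and endpoints were estimated by linear interpolation. At the GI50, growth is halved. Definition used: TGI = concentration required for complete inhibition of growth.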
Legend:
Assay in all cases: NCI anticancer screen, dose series, 48 h
OVCAR-3 ovarian = test system: OVCAR-3 ovarian
CCRF-CEM leukemia = test system: CCRF-CEM leukemia
MOLT-4 leukemia = test system: MOLT-4 leukemia
U251 CNS = test system: U251 CNS
DU-145 prostate = test system: DU-145 prostate
HT29 colon = test system: HT29 colon
TK-10 renal = test system: TK-10 renal
RPMI-8226 leukemia = test system: RPMI-8226 leukemia
MDA-MB-435 = test system: MDA-MB-435
OVCAR-8 ovarian = test system: OVCAR-8 ovarian
SK-MEL-28 melanoma = test system: SK-MEL-28 melanoma
786-0 renal = test system: 786-0 renal
BT-549 breast = test system: BT-549 breast
HOP-62 NSCLC = test system: HOP-62 NSCLC
SNB-19 CNS = test system: SNB-19 CNS
UACC-62 melanoma = test system: UACC-62 melanoma
SF-539 CNS = test system: SF-539 CNS
A498 renal = test system: A498 renal
SW-620 colon = test system: SW-620 colon
ACHN renal = test system: ACHN renal
NCI-H522 lung = test system: NCI-H522 lung
CAKI-1 renal = test system: CAKI-1 renal
SF-268 CNS = test system: SF-268 CNS
A549 NSCLC = test system: A549 NSCLC
EKVX NSCLC = test system: EKVX NSCLC
HCT-15 colon = test system: HCT-15 colon
T-47D breast = test system: T-47D breast
HL-60(TB) leukemia = test system: HL-60(TB) leukemia
K-562 leukemia = test system: K-562 leukemia
SK-MEL-2 melanoma = test system: SK-MEL-2 melanoma
SK-MEL-5 melanoma = test system: SK-MEL-5 melanoma
UACC-257 melanoma = test system: UACC-257 melanoma
MALME-3M melanoma = test system: MALME-3M melanoma
NCI-H460 lung = test system: NCI-H460 lung
NCI-H226 lung = test system: NCI-H226 lung
COLO 205 colon = test system: COLO 205 colon
HCT-116 colon = test system: HCT-116 colon
SK-OV-3 ovarian = test system: SK-OV-3 ovarian
KM12 colon = test system: KM12 colon
MDA-MB-231 breast = test system: MDA-MB-231 breast
IGROV1 ovarian = test system: IGROV1 ovarian
PC-3 prostate = test system: PC-3 prostate
M14 melanoma = test system: M14 melanoma
HS 578T breast = test system: HS 578T breast
SR leukemia = test system: SR leukemia
OVCAR-4 ovarian = test system: OVCAR-4 ovarian
RXF 393 renal = test system: RXF 393 renal
NCI/ADR-RES ovarian = test system: NCI/ADR-RES ovarian
NCI-H23 lung = test system: NCI-H23 lung
SF-295 CNS = test system: SF-295 CNS
SN12C renal = test system: SN12C renal
UO-31 renal = test system: UO-31 renal
HOP-92 NSCLC = test system: HOP-92 NSCLC
HCC-2998 colon = test system: HCC-2998 colon
MCF7 breast = test system: MCF7 breast
SNB-75 CNS = test system: SNB-75 CNS
OVCAR-5 ovarian = test system: OVCAR-5 ovarian
LOX IMVI melanoma = test system: LOX IMVI melanoma

CC1=C(SCCC(=O)OCC(=O)NCCC[Te]c2ccccc2)C(=O)c2ccccc2C1=O
GI50 (OVCAR-3 ovarian): 2.23 µM | TGI (OVCAR-3 ovarian): 4.81 µM | GI50 (CCRF-CEM leukemia): 2.1 µM | TGI (CCRF-CEM leukemia): 19.6 µM | GI50 (MOLT-4 leukemia): 3.12 µM | TGI (MOLT-4 leukemia): 12.2 µM | GI50 (U251 CNS): 2.39 µM | TGI (U251 CNS): 8.06 µM | GI50 (DU-145 prostate): 2.95 µM | TGI (DU-145 prostate): 8.05 µM | GI50 (HT29 colon): 3.29 µM | TGI (HT29 colon): 11.1 µM | GI50 (TK-10 renal): 3.87 µM | TGI (TK-10 renal): 12.4 µM | GI50 (RPMI-8226 leukemia): 2.64 µM | TGI (RPMI-8226 leukemia): 9.84 µM | GI50 (MDA-MB-435): 3.07 µM | TGI (MDA-MB-435): 10.4 µM | GI50 (OVCAR-8 ovarian): 2.74 µM | TGI (OVCAR-8 ovarian): 11 µM | GI50 (SK-MEL-28 melanoma): 2.41 µM | TGI (SK-MEL-28 melanoma): 5.78 µM | GI50 (786-0 renal): 2.64 µM | TGI (786-0 renal): 7.33 µM | GI50 (BT-549 breast): 1.7 µM | TGI (BT-549 breast): 3.95 µM | GI50 (HOP-62 NSCLC): 2.04 µM | TGI (HOP-62 NSCLC): 5.19 µM | GI50 (SNB-19 CNS): 2.78 µM | TGI (SNB-19 CNS): 10.4 µM | GI50 (UACC-62 melanoma): 1.94 µM | TGI (UACC-62 melanoma): 4.83 µM | GI50 (SF-539 CNS): 2.29 µM | TGI (SF-539 CNS): 6.71 µM | GI50 (A498 renal): 1.9 µM | TGI (A498 renal): 6.16 µM | GI50 (SW-620 colon): 3.79 µM | TGI (SW-620 colon): 15.6 µM | GI50 (ACHN renal): 2.76 µM | TGI (ACHN renal): 10.2 µM | GI50 (NCI-H522 lung): 2.71 µM | TGI (NCI-H522 lung): 10.8 µM | GI50 (CAKI-1 renal): 1.86 µM | TGI (CAKI-1 renal): 6.87 µM | GI50 (SF-268 CNS): 2.61 µM | TGI (SF-268 CNS): 9.42 µM | GI50 (A549 NSCLC): 0.793 µM | TGI (A549 NSCLC): 2.95 µM | GI50 (EKVX NSCLC): 0.443 µM | TGI (EKVX NSCLC): 5.11 µM | GI50 (HCT-15 colon): 2.73 µM | TGI (HCT-15 colon): 11.4 µM | GI50 (T-47D breast): 2.2 µM | TGI (T-47D breast): 6.21 µM | GI50 (HL-60(TB) leukemia): 2.58 µM | TGI (HL-60(TB) leukemia): 7.07 µM | GI50 (K-562 leukemia): 3.3 µM | TGI (K-562 leukemia): 19.4 µM | GI50 (SK-MEL-2 melanoma): 2.75 µM | TGI (SK-MEL-2 melanoma): 7.24 µM | GI50 (SK-MEL-5 melanoma): 1.52 µM | TGI (SK-MEL-5 melanoma): 2.88 µM | GI50 (UACC-257 melanoma): 2.88 µM | TGI (UACC-257 melanoma): 8.23 µM | GI50 (MALME-3M melanoma): 2.22 µM | TGI (MALME-3M melanoma): 5.56 µM | GI50 (NCI-H460 lung): 0.79 µM | TGI (NCI-H460 lung): 3 µM | GI50 (NCI-H226 lung): 1.64 µM | TGI (NCI-H226 lung): 3.64 µM | GI50 (COLO 205 colon): 1.97 µM | TGI (COLO 205 colon): 3.88 µM | GI50 (HCT-116 colon): 1.63 µM | TGI (HCT-116 colon): 4.12 µM | GI50 (SK-OV-3 ovarian): 1.9 µM | TGI (SK-OV-3 ovarian): 4.62 µM | GI50 (KM12 colon): 2.96 µM | TGI (KM12 colon): 10.1 µM | GI50 (MDA-MB-231 breast): 1.8 µM | TGI (MDA-MB-231 breast): 4.34 µM | GI50 (IGROV1 ovarian): 1.92 µM | TGI (IGROV1 ovarian): 5.58 µM | GI50 (PC-3 prostate): 1.96 µM | TGI (PC-3 prostate): 9.76 µM | GI50 (M14 melanoma): 2.11 µM | TGI (M14 melanoma): 5.27 µM | GI50 (HS 578T breast): 2.97 µM | TGI (HS 578T breast): > 33.7 µM | GI50 (SR leukemia): 1.97 µM | TGI (SR leukemia): 17.4 µM | GI50 (OVCAR-4 ovarian): 2.21 µM | TGI (OVCAR-4 ovarian): 7.34 µM | GI50 (RXF 393 renal): 1.78 µM | TGI (RXF 393 renal): 5.16 µM | GI50 (NCI/ADR-RES ovarian): 2.22 µM | TGI (NCI/ADR-RES ovarian): 7.32 µM | GI50 (NCI-H23 lung): 1.84 µM | TGI (NCI-H23 lung): 5.25 µM | GI50 (SF-295 CNS): 1.11 µM | TGI (SF-295 CNS): 4.24 µM | GI50 (SN12C renal): 2.21 µM | TGI (SN12C renal): 7.99 µM | GI50 (UO-31 renal): 1.74 µM | TGI (UO-31 renal): 8.66 µM | GI50 (HOP-92 NSCLC): 1.8 µM | TGI (HOP-92 NSCLC): 5.01 µM | GI50 (HCC-2998 colon): 1.78 µM | TGI (HCC-2998 colon): 4.58 µM | GI50 (MCF7 breast): 2.5 µM | TGI (MCF7 breast): 10.7 µM | GI50 (SNB-75 CNS): 1.37 µM | TGI (SNB-75 CNS): 5.42 µM | GI50 (OVCAR-5 ovarian): 2.86 µM | TGI (OVCAR-5 ovarian): 7.68 µM | GI50 (LOX IMVI melanoma): 1.72 µM | TGI (LOX IMVI melanoma): 4.07 µM

From PubChem BioAssay (NCI)
